Laboratory results: patent publication US12624013B2, “Purification of 2,5-furandicarboxylic acid, dimethyl ester and other esterified products” (Archer Daniels Midland Company, priority 2020, dated 2026)

Legend:
Assay type in all cases: physicochemical
[1] = Solubility of FDME in various solvents (sonicated 15 minutes at 35° C.); conditions: for Solubility remarks / FDME solubility limits: 35° C.
Experimental: An impure solid FDME sample, obtained from the esterification of FDCA with methanol, was determined to have 82.6 wt-% FDME (dimethyl ester), in addition to 10.4 wt-% of the monomethyl ester, FDMME, resulting from incomplete esterification. The sample also contained 0.35 wt-% of the FDCA starting compound and 0.58 wt-% of the aldehyde contaminant, FFME. In separate solubility studies with different solvents, various amounts of this sample were charged to a scintillation vial, and in each case 10 ml of solvent was added.

[2] = Storage stability of purified FDME crystals in ambient air; conditions: 3.5 years
Experimental: A 200 gram sample of a dried, impure mixture (crude composition comprising FDME) obtained from the esterification of FDCA with methanol to FDME was added to a 500 ml Erlenmeyer flask equipped with a PTFE magnetic stir bar. This solid composition was determined by UPLC-PDA to be 80 wt-% FDME, 18 wt-% FDMME, and 2 wt-% FDCA. Approximately 100 ml of methylene chloride was added to the flask, followed by 100 ml of 5 wt-% sodium bicarbonate. The biphasic solution was vigorously stirred for 30 minutes and transferred to a 1 liter separatory flask, which was used to remove the bottom organic phase. The top aqueous phase was extracted 2 times with additional extraction quantities, 30 ml each, of methylene chloride. These additional extraction quantities were combined with the organic phase, and the combined liquids were transferred to a 500 ml Wheaton bottle and placed in the freezer overnight. […] The retained crystals were dried with a stream of argon for 1 hour, determined to have a weight of 58.7 grams, and then stored in a 250 ml Wheaton bottle. A purity analysis of the crystals of the purified composition was carried out by quantitative ^1H NMR, indicating these to be 99.98 wt-% pure. The crystals were stored in ambient air and in a bottle on a tabletop.

[3] = CIE 1976 (L*a*b*) colorimetry of stored purified FDME composition; conditions: after storage over 3 years in ambient air
Experimental: In this regard, the color of the purified FDME composition was evaluated quantitatively by determining its chromaticity coordinates in the L*a*b* color space. This refers to a particular color space of different color systems of the CIE, or Commission Internationale de l'Echairage (International Commission of Illumination), which color systems were developed as a way to standardize color, or express color values numerically, and thereby remove the subjectivity of the human observer. The CIE 1976 (L*a*b*) color space is based on the opponent-colors theory of color vision, according to which two colors cannot be both green and red at the same time, nor blue and yellow at the same time. Therefore, single values can be used to describe the red/green and the yellow/blue attributes of a sample. In this regard, when a color is expressed using the L a*b* color space, the respective coordinates of L*, a*, and b* denote lightness, the red/green value, and the yellow/blue value, with these coordinates ranging from −100 to +100. For purposes of characterizing compositions described herein with respect to yellow color, the value of b* is particularly relevant. The assessment of the L*, a*, and b* coordinates of the purified FDME composition was performed using a commercially available colorimeter from Konica Minolta, model CM-5.
(§1) To prepare a first sample, Sample #1, of the purified FDME composition for color analysis, a 0.597 gram portion of the composition was dissolved in 9.414 grams of a solvent mixture of 1:1 (v/v) acetonitrile/isopropanol, such that Sample #1 contained 5.96 wt-% of the dissolved composition. A second sample, Sample #2 was prepared by dissolving a 0.592 gram portion of the composition in 9.406 grams of this solvent, such that Sample #2 contained 5.92 wt-% of the dissolved composition. For each sample having a target concentration of 6 wt-% dissolved solids, two CIE 1976 (L*a*b*) colorimetry measurements and two APHA measurements were performed.

[4] = APHA color (ASTM D1209) of stored purified FDME composition; conditions: Average of Samples #1 and #2, two measurements each; after storage over 3 years in ambient air
Experimental: Another color measurement, which is referred to as APHA color, was also determined for the purified FDME composition according to ASTM D1209. APHA color is also known as the Hazen scale, as well as the platinum cobalt (Pt/Co) scale. APHA is a color standard named for the American Public Health Association that was originally intended to describe the color of wastewater, but its usage has expanded to include other applications. APHA color is a color scale sometimes referred to as a “yellowness index” that is used to assess the quality of liquids that are clear to yellowish in color.
as §1

[5] = Room temperature solubility of FDME in methanol; conditions: content of mother liquor
Experimental: The combination of filtration with diatomaceous earth and crystallization was investigated for its effectiveness in purifying a crude composition of FDME, having weight percentages of individual compounds as described in Example 1. A 105 gram sample of this crude composition was ground and dissolved in 700 ml of methanol to provide a 15 wt-% stock solution of the crude composition, which was maintained at 55° C. in a water bath with shaking. A 300 gram portion of this stock solution was removed and diluted to 2 wt-% dissolved solids, or approximately the room temperature solubility, and filtered on a 2″ diatomaceous earth (DE) filter using a Buchner funnel. Following this DE filtration, the solution was concentrated back to 20 wt-% in a crystallizer using a vacuum pump to evaporate the methanol solvent. […] Stirring at 100 rpm was maintained during the cooling, and the particle size distribution was determined in real time. […] It was determined that a 2-hour residence time at 35° C. and subsequent cooling to 30° C. leads to significant nucleation. […]
The solids from crystallization were emptied onto a Buchner funnel filter, and the crystals were sprayed with room temperature methanol. […] Following this single stage of crystallization, 67% of the FDME from the crude composition was recovered in the purified composition, which was determined to be 99.05 wt-% FDME and 0.86 wt-% FDMME. […]

[6] = Average of Samples #1 and #2, two measurements each
[7] = single measurements, about 6 wt-% in 1:1 (v/v) acetonitrile/isopropanol

Solubility of crude compositions, summary in words ([1]; in methylene chloride, acetonitrile, N,N′-dimethylformamide, 1,4-dioxane, 1,1,2,2-tetrachloroethane, ethyl acetate, tetrahydrofuran, pyridine, acetone, dimethyl sulfoxide): favorable solubility
Solubility remarks ([1]; solvent 1,1,2,2-tetrachloroethane): Very soluble
FDME solubility limits ([1]; solvent 1,1,2,2-tetrachloroethane, impure FDME sample (82.6 wt-% FDME)): 23-27 wt-%
FDME solubility limits ([1]; solvent 1,3-Propanediol): <8 wt-%
Solubility remarks ([1]; solvent 1,3-Propanediol): Insoluble
FDME solubility limits ([1]; solvent 1,4-Dioxane): 23-28 wt-%
Solubility remarks ([1]; solvent 1,4-Dioxane): Very soluble
FDME solubility limits ([1]; solvent Acetone): 12-20 wt-%
Solubility remarks ([1]; solvent Acetone): Soluble
FDME solubility limits ([1]; solvent Acetonitrile): >39 wt-%
Solubility remarks ([1]; solvent Acetonitrile): Exceptionally soluble
FDME solubility limits ([1]; solvent Dimethyl sulfoxide): 9-13 wt-%
Solubility remarks ([1]; solvent Dimethyl sulfoxide): Soluble
FDME solubility limits ([1]; solvent Ethanol): <10 wt-%
Solubility remarks ([1]; solvent Ethanol): Insoluble
FDME solubility limits ([1]; solvent Ethyl Acetate): 18-25 wt-%
Solubility remarks ([1]; solvent Ethyl Acetate): Very soluble
FDME solubility limits ([1]; solvent Ethylene Glycol): <8 wt-%
Solubility remarks ([1]; solvent Ethylene Glycol): Insoluble
FDME solubility limits ([1]; solvent Methanol): <11 wt-%
Solubility remarks ([1]; solvent Methanol): Insoluble
FDME solubility limits ([1]; solvent Methyl-t-butyl ether): <10 wt-%
Solubility remarks ([1]; solvent Methyl-t-butyl ether): Insoluble
FDME solubility limits ([1]; solvent Methylene Chloride): 27-31 wt-%
Solubility remarks ([1]; solvent Methylene Chloride): Very soluble
FDME solubility limits ([1]; solvent N,N′-dimethylformamide): 30-35 wt-%
Solubility remarks ([1]; solvent N,N′-dimethylformamide): Very soluble
FDME solubility limits ([1]; solvent Pyridine): 17-23 wt-%
Solubility remarks ([1]; solvent Pyridine): Very soluble
FDME solubility limits ([1]; solvent THF): 17-23 wt-%
Solubility remarks ([1]; solvent THF): Very soluble
FDME solubility limits ([1]; solvent Toluene): <10 wt-%
Solubility remarks ([1]; solvent Toluene): Insoluble
Purity on storage (stability) ([2]; crystals initially 99.98 wt-% pure, stored in ambient air in a bottle on a tabletop): maintained
L* [3, 6]: 99.43
a* [3, 6]: −0.01
b* [3, 6]: 0.39
L* [3, 7]: > 99
a* [3, 7]: < 0.5
b* [3, 7]: < 0.5
Hazen/APHA [4]: 12
Room temperature solubility in methanol [5]: approximately 2 wt-%
Compound: COC(=O)c1ccc(C(=O)OC)o1 [FDME, 2,5-furandicarboxylic acid, dimethyl ester]
Appearance on storage (color stability, flow) ([2]; stored in ambient air): very little development of off-white color
